Data from PubChem BioAssay AID367 (MTDP, 2006).
Several values for one entry are separate records, joined by “and”; a condition that tells them apart may be missing. Identical values can stand only once. Activity calls are given as the source filed them. How the calls were made is not given here.

Target: Gag-Pol polyprotein (Human immunodeficiency virus type 2 subtype A (isolate ROD)) (UniProt P04584)
Assay: Ribonuclease H inhibitors of HIV-2 reverse transcriptase, biochemical dose response (AID 367)
Details: HIV-2 RNase H, FRET RNA/DNA substrate cleavage

Gag-Pol polyprotein (Human immunodeficiency virus type 2 subtype A (isolate ROD)), sequence (P04584 whole entry, looked up): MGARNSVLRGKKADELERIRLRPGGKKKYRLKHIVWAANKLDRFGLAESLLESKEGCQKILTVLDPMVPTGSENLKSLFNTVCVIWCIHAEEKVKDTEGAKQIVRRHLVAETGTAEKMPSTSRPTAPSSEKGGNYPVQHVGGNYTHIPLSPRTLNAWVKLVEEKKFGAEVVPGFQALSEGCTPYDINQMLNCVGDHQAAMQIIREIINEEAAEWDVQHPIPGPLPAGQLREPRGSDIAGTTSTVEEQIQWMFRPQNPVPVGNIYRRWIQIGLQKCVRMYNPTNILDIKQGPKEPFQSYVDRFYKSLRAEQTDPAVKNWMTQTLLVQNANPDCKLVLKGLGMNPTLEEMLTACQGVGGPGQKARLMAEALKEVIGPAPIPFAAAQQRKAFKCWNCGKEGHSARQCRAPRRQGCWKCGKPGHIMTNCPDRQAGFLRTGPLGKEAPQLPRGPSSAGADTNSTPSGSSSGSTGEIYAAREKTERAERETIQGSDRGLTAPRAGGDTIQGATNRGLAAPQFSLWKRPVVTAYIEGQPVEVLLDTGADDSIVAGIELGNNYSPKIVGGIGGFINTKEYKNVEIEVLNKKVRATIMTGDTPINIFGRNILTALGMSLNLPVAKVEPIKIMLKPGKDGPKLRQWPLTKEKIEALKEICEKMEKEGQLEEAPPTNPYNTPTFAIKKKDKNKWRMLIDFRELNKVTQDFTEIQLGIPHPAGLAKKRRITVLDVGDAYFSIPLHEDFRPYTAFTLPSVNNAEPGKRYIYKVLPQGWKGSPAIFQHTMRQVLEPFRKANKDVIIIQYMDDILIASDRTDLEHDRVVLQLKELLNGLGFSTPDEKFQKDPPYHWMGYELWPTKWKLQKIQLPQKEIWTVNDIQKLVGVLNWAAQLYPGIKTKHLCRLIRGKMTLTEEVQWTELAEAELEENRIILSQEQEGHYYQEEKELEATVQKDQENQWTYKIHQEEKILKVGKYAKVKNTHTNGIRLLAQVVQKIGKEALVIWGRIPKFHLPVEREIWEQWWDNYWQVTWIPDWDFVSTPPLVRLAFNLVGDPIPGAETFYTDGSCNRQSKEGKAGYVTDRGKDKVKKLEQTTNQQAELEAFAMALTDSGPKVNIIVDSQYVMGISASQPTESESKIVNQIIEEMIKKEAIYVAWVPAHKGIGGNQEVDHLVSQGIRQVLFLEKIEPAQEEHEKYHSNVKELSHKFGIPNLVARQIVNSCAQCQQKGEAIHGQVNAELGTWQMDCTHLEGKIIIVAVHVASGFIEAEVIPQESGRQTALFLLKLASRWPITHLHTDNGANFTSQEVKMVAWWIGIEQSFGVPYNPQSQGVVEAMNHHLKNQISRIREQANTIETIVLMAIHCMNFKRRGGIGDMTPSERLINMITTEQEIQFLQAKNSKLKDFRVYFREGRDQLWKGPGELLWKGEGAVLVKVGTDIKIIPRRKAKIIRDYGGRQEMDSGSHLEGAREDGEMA

Row | Structure (SMILES) | IC50
1 | CCN1C(=O)/C(=C/c2ccoc2)C(=O)NC1=S | inactive
2 | O=C(N/N=C/c1ccccc1Cl)c1cc(O)c(O)c(O)c1 | 0.8 µM
3 | Cc1cc(O)c2c(c1O)C(=O)C13C(=C2O)C(=O)C2C(O)C1C1C(O)C3C(=O)C3=C(O)c4c(O)cc(C)c(O)c4C(=O)C321 (stereo not drawn) | 8.2 µM
4 | COc1cc(-c2[o+]c3cc(O)cc(O)c3cc2O)cc(O)c1O | 4.1 µM and 3.1 µM
5 | O=c1[nH]c(=S)n(-c2ccccc2F)c(O)c1C=C1C=CC=N1 | 2.3 µM
6 | CCCCCCCCCCCCCCCCCCOCC(O)CO (stereo not drawn) | > 100 µM (inactive)
7 | N#Cc1c(N)nc(SCC(=O)c2ccc(O)c(O)c2)c(C#N)c1-c1ccc(O)cc1 | 0.43 µM
8 | Cc1ccc(NC(=O)c2c(NC(=O)C(F)(F)F)sc(-c3ccccc3)c2C)c(C)c1 | 2 µM
9 | Cc1cc(Br)ccc1N1C(=O)/C(=C/c2ccco2)C(=O)NC1=S | 4 µM
10 | Cc1sc(NC(=O)c2ccc3c(c2)OCO3)c(C(N)=O)c1C | 10 µM
11 | CC(C)=CCC1=C(O)[C@@](O)(CC=C(C)C)C(=O)C(C(=O)CC(C)C)=C1O | 2.8 µM
12 | O=C1C=CC(=NS(=O)(=O)c2ccc(Cl)c([N+](=O)[O-])c2)C=C1 | 4.1 µM
13 | COc1ccc(/C=C\C(=O)c2c(-c3ccccc3)c3cc(C)ccc3[nH]c2=O)c(OC)c1 | inactive
14 | COC(=O)c1c(N)sc(C(=O)Nc2ccc(OC)cc2)c1C | 4.3 µM
15 | Nc1cc(S(N)(=O)=O)ccc1SSc1ccc(S(N)(=O)=O)cc1N | 2.5 µM
16 | COc1ccc(C2COc3cc(O)c(O)cc3C2)cc1 (stereo not drawn) | 0.5 µM
17 | CCOc1ccc(C(=O)Nc2ccc3c(c2)C(=O)c2ccccc2C3=O)cc1 | 4.3 µM
18 | CC1=C(C)CC(C(=O)Nc2ccc(N3C(=O)c4ccccc4C3=O)cc2)C(C(=O)O)C1 (stereo not drawn) | > 100 µM (inactive)
19 | C=CC(C)(C)C12CC3C(=O)N/C(=C\c4cnc[nH]4)C(=O)N3C1Nc1ccccc12 (stereo not drawn) | > 100 µM (inactive)
20 | O=C1C(Cl)=C/C(=N\S(=O)(=O)c2ccc(Cl)cc2)C(Cl)=C1Cl | 1 µM
21 | O=C1C=CC2=C3c4cc(O)c(O)cc4CC3(O)COC2=C1O (stereo not drawn) | 1.7 µM
22 | O=C1NN(c2ccc(I)cc2)C(=O)/C1=C\c1ccc(O)c(O)c1 | 4.1 µM
23 | CC1=NN(c2ccc(S(N)(=O)=O)cc2)C(=O)/C1=C/c1ccc(-c2ccc(Cl)cc2Cl)o1 | 3.6 µM
24 | CC(=O)O[C@H](C)[C@@H]1C2=C(C(=O)C[C@]1(C)O)C(=O)c1c(ccc(-c3ccc4c(c3O)C(=O)C3=C(C4=O)[C@@H]([C@@H](C)OC(C)=O)[C@@](C)(O)CC3=O)c1O)C2=O | inactive
25 | Cc1cc(-c2ccc(C=C3C(=O)NC(=S)NC3=O)o2)c([N+](=O)[O-])cc1C | 7 µM

Row | Structure (SMILES) | IC50
26 | CC(C)OC(=O)c1cc(O)c(O)c(O)c1 | 8 µM
27 | Cc1ccc(-c2c(C#N)c(SCC(=O)c3ccc(O)c(O)c3)nc3c2CCCC3)o1 | 1.5 µM
28 | O=C1NC(=S)S/C1=C/c1cccc(OCc2ccc(Cl)c(Cl)c2)c1 | 7.3 µM
29 | CCOC(=O)Oc1c(OC)cc(C(=O)O[C@@H]2C[C@@H]3CN4CCc5c([nH]c6cc(OC)ccc56)[C@H]4C[C@@H]3[C@H](C(=O)OC)[C@H]2OC)cc1OC | > 100 µM (inactive)
30 | COc1ccccc1NC(=O)c1c(NC(=O)Cc2ccccc2)sc2c1CCCCC2 | 8.5 µM
31 | CCC(=O)Nc1sc2c(c1C(=O)Nc1ccc(OC)cc1)CCCCC2 | inactive
32 | CC(C)c1ccc(O)c(O)c(=O)c1 | 1 µM
33 | CN(C)S(=O)(=O)c1ccc(Nc2ccc(O)c3c2C(=O)c2c([N+](=O)[O-])ccc(O)c2C3=O)cc1 | 8 µM
34 | NC(=O)c1c(N)sc2c1CCCCC2 | 2.5 µM
35 | O=[N+]([O-])c1c(Cl)cccc1-c1c[nH]cc1Cl | > 100 µM (inactive)
36 | O=C1NC(=S)N(c2ccccc2F)C(=O)/C1=C/c1ccc(OCc2cccc(C(=O)O)c2)cc1 | 9 µM
37 | O=C1Nc2ccc(I)cc2C1(O)N1CCOCC1 (stereo not drawn) | 6.3 µM
38 | COc1cc([C@@H]2c3cc4c(cc3C[C@H]3COC(=O)[C@@H]32)OCO4)cc(OC)c1O | inactive
39 | C=Cc1c(C)c2cc3[nH]c(cc4nc(cc5nc(cc1[nH]2)C(C)=C5CCC(=O)O)C(CCC(=O)O)=C4C)c(C)c3C=C | 1.7 µM
40 | Cc1cc(O)c2c(c1O)C(=O)c1cccc(O)c1C2=O | > 100 µM (inactive)
41 | O=C1c2ccccc2C(=O)N1c1ccc(-c2nc3ccc(N4C(=O)c5ccccc5C4=O)cc3[nH]2)cc1 | 1.7 µM
42 | CCCCCCCCCCCCCCCC(=O)OCC1OC(n2ccc(N)nc2=O)C(O)C1O (stereo not drawn) | inactive
43 | Cc1onc(-c2ccccc2)c1C(=O)Nc1sc(C)c(C)c1C(N)=O | inactive
44 | O=C(Oc1ccccc1)Oc1c(Cl)cc2oc(=O)sc2c1Cl | 6.3 µM
45 | O=C1c2ccc(O)cc2C(=O)c2c1ccc(O)c2O | 2 µM
46 | O=C1C(Cl)=C(NC(=O)c2ccccc2)C(=O)C(Cl)=C1NC(=O)c1ccccc1 | 1.1 µM
47 | O=c1[nH]c2[nH]c(=S)[nH]c(=S)c2[nH]1 | 4 µM
48 | Cc1ccc(C(=O)NC(=S)Nc2ccc(-c3nc4ccccc4s3)cc2)cc1[N+](=O)[O-] | inactive
49 | O=C1c2ccccc2C(=O)c2c1cc(O)c(O)c2O | 0.4 µM
50 | C[N+](C)=c1ccc2nc3c(cc(Nc4ccccc4)c4ccccc43)oc-2c1 | inactive

Row | Structure (SMILES) | IC50
51 | Cc1cc(I)c2c(c1)C1C=CCC1C(C(=O)O)N2 (stereo not drawn) | > 100 µM (inactive)
52 | COc1cc(C)cc2c(-c3c(O)cc(O)c4c3C[C@@H](C)N[C@@H]4C)cc(-c3cc(-c4c(O)cc(O)c5c4C[C@@H](C)N[C@@H]5C)c4cc(C)cc(OC)c4c3O)c(O)c12 | 2.1 µM
53 | O=C1C=C/C(=N\S(=O)(=O)c2cc(Cl)ccc2Cl)C=C1Cl | 2 µM
54 | O=C1/C(=C/c2ccco2)C(=O)N(c2ccc(Br)cc2)C(=S)N1c1ccccc1 | inactive
55 | COc1cc(/C=N\c2sc3c(c2C(=O)NCc2ccccc2)CCCC3)cc(Cl)c1O | 2.8 µM
56 | O=C1C=CC(=O)C(c2cc(Cl)ccc2Cl)=C1 | 0.1 µM
57 | O=C(O)CCc1c2ccc(=O)c(O)c-2oc2c(O)c(O)ccc12 | 0.6 µM
58 | Cc1sc(NC(=O)Cc2ccccc2)c(C(N)=O)c1C | 9 µM
59 | O=C(CSc1nc2ccccc2s1)c1sc2sc3ccccc3[n+]2c1[O-] | 1.9 µM
60 | O=C(Nc1ccc(N2CCN(C(=O)c3ccccc3)CC2)cc1)c1ccc(-c2ccccc2)cc1 | 2.6 µM
61 | Oc1cc(O)c2c(c1)OC(c1ccc(O)c(O)c1)C(OC1(c3cc(O)c(O)c(O)c3)Oc3cc(O)cc(O)c3C(O)C1O)C2 (stereo not drawn) | 1.6 µM
62 | CC(C)=CCC/C(C)=C/Cc1cc(/C=C/c2cc(O)c(C/C=C(\C)CCC=C(C)C)c(O)c2)cc(O)c1O | 8.2 µM
63 | O=C(O)c1c(Br)c(Br)c(Br)c(Br)c1C1c2ccc(O)cc2Oc2cc(O)ccc21 | 8 µM
64 | Ic1ccc2c(c1)N(c1ccccc1)c1cc(N=c3ccc4nc5ccc(I)cc5n(-c5ccccc5)c-4c3)ccc1N2 | 2 µM
65 | Cc1cc(Cl)ccc1OCC(=O)Nc1sc(C)c(C)c1C(N)=O | inactive
66 | CC1Oc2cc3c(-c4c(O)cc(O)c5c(O)c6c(cc45)OC(C)C(C)C6=O)c(O)cc(O)c3c(O)c2C(=O)C1C (stereo not drawn) | 8.2 µM
67 | CC(C)=CCc1ccc(O)c(=O)cc1C(C)C | > 100 µM (inactive)
68 | CC(C)=CCC(O)C1=CC(=O)c2c(O)ccc(O)c2C1=O (stereo not drawn) | inactive
69 | O=C1C(Cl)=C(Nc2ccc(S(=O)(=O)Nc3ccccn3)cc2)C(=O)c2ccccc21 | 3.4 µM
70 | CC1=C(CCC(=O)O)c2cc3nc(cc4[nH]c(cc5[nH]c(cc1n2)c(C)c5C(C)O)c(C)c4C(C)O)C(C)=C3CCC(=O)O (stereo not drawn) | 1.7 µM
71 | O=C1c2cc([N+](=O)[O-])ccc2-c2ccc3c4ccc5c6c(ccc(c7ccc1c2c73)c64)C(=O)c1cc([N+](=O)[O-])ccc1-5 | 4 µM
72 | O=C1C(Cl)=CC(=NS(=O)(=O)c2ccccc2)C=C1Cl | 1 µM
73 | CCOc1ccc(NC(=O)c2c(NC(=O)c3ccco3)sc3c2CCCCC3)cc1 | 6 µM
74 | O=C1NC(=S)N(c2ccc(Cl)cc2)C(=O)/C1=C\C=C\c1ccccc1[N+](=O)[O-] | 8 µM
75 | O=[N+]([O-])c1ccc(S(=O)(=O)Cc2ccccc2)c2nonc12 | 5 µM

Row | Structure (SMILES) | IC50
76 | COc1ccc(-c2nc3sc(-c4ccc(OC)cc4)nc3s2)cc1 | 2.9 µM
77 | COc1ccc(N2C(=O)/C(=C\c3cn(CC(=O)Nc4ccccc4)c4ccccc34)C(=O)NC2=S)cc1 | 2.8 µM
78 | Cc1ccc(S(=O)(=O)N=C2C=CC(=O)C=C2)c(C)c1 | 4.3 µM
79 | C[C@@H]1Oc2c3c(c4c(-c5ccccc5)cc(=O)oc4c2C(=O)[C@H]1C)OC(C)(C)C=C3 | 9.8 µM
80 | CCOc1ccc(N2C(=O)/C(=C/c3ccc(Br)o3)C(=O)NC2=S)cc1 | 0.9 µM
81 | O=C1CC(=O)c2ccc3c4c(ccc1c24)C(=O)CC3=O | 3.8 µM
82 | Cc1ccc(S(=O)(=O)N=C2C=C(Cl)C(=O)C(Br)=C2)cc1 | 1.8 µM
83 | COC(=O)c1cc2cc3cc4cc(CC(=O)O)c(C(=O)/C=C(\O)c5ccccc5O)c(OC)c4c(OC)c3c(O)c2c(=O)o1 | 8.6 µM
84 | COc1ccc(N2C(=O)/C(=C/c3ccc(I)o3)C(=O)NC2=S)cc1 | 1.3 µM
85 | C[C@@H]1[C@H](O)c2c(c3c(c4c(-c5ccccc5)cc(=O)oc24)OC(C)(C)C=C3)O[C@@H]1C | inactive
86 | CCOc1ccc(NC(=O)c2c(NC(=O)c3ccccc3)sc3c2CCCCC3)cc1 | inactive
87 | CCCc1cc(=O)oc2c3c(c4c(c12)OC(C)(C)C=C4)O[C@@H](C)[C@H](C)[C@@H]3F | inactive
88 | COc1ccc(NC(=O)c2c(N)sc(-c3ccccc3)c2C)cc1 | 9 µM
89 | O=S(=O)(Nc1cccc(C(F)(F)F)c1)c1ccc2ccccc2c1 | inactive
90 | Cc1ccc(C2COc3cc(O)c(O)cc3C2)cc1 (stereo not drawn) | 0.6 µM
91 | O=C(Nc1sc2c(c1C(=O)Nc1cccc3ccccc13)CCCCC2)c1ccccc1F | inactive
92 | O=c1c(O)c(-c2ccc(O)c(O)c2)oc2cc(O)cc(O)c12 | 9 µM
93 | CCCc1cc(=O)oc2c3c(c4c(c12)OC(C)(C)C=C4)O[C@H](C)[C@@H](C)[C@H]3OC | inactive
94 | O=C1/C(=C/c2ccc(O)c(O)c2)SC(=S)N1c1ccc(O)cc1 | 2.6 µM
95 | O=C1C=CC(=O)C(c2cccc(Cl)c2)=C1 | 1.1 µM
96 | O=C(O)C1Nc2c(Cl)cc(Cl)cc2C2C=CCC12 (stereo not drawn) | inactive
97 | C=CCn1c(N)c(-c2nc3ccccc3[nH]2)sc1=S | 3.9 µM
98 | S=C(Nc1ccc2c(c1)Cc1ccccc1-2)Nc1ccc2c(c1)Cc1ccccc1-2 | inactive
